Measurements as given in patent US11779628B2, “Use of cell-permeable peptide inhibitors of the JNK signal transduction pathway for the treatment of various diseases” (Xigen Inflammation Ltd., priority 2014, dated 2023).
Like-named read-outs stand apart in the source and are kept apart here.

Experiments:
[1] = system: Primary cultured macrophages; type: cell-based
Method: FIG. 24 Primary cultured macrophages were incubated with XG-102 (SEQ ID NO: 11) and extensively washed.

[2] = system: Sprague-Dawley albino rats, light-induced photoreceptor cell death; type: in vivo; details: Day 23
From the text: The aim of this study was to investigate the dose effect of XG-102 on light-induced photoreceptor cell death.
50 male Rat (Sprague-Dawley (albinos rat); approximately 8 weeks; 200-250 g (on ordering)) have been used. Rats are most commonly used in this experimental model. Animals were examined before study, and particular attention was paid to the eyes. Animals were held in observation for 2 weeks following their arrival. Animals were observed daily for signs of illness. Only healthy animals with no ocular abnormalities were accepted for use in experiments. Animals were housed individually in standard cages (420×270×190 mm)^ii. All animals were housed under identical environmental conditions. The temperature was held at 22±2° C. and the relative humidity at 55±10%. Rooms were continuously ventilated (15 times per hour). A cycle of 12 hours light (200-300 lx) and 12 hours darkness was automatically controlled. These parameters were continuously controlled and recorded. Throughout the study, animals had free access to food and water. They were fed a standard dry pellet diet. Tap water was available ad libitum from plastic bottles.
Forty-eight (48) rats were randomly divided into six (6) groups of eight (8) animals each. Test item (XG-102: 30 mg/ml, 3 mg/ml, and 0.3 mg/ml) and vehicle (0.9% NaCl) were administered by intravitreal injection in right eyes the day before induction. The reference (Phenyl-N-test-Butylnitrone (PBN) (50 mg/kg)) and vehicle were intraperitoneally injected 30 min before induction then, 3 times during 12 hours of light exposition, then once after induction. Animals were placed in constant light (7000 lux) for 24 h. Electroretinograms (ERG) were recorded before light treatment and on days 9, 16 and 23 after induction. Eyes were then taken for histology and outer nuclear layer (ONL) thickness assessment. The table below summarizes the allocation of animals in treatment groups:
For the intravitreal injection animals were anesthetized by intramuscular injection of a mixture of xylazine/ketamine. Test item (5 μl) and vehicle (5 μl) were injected in the right eye. The injection was performed under an operating microscope in the supratemporal area at pars plana using a 33G-needle mounted on a 50 μl Hamilton. The filled syringe was mounted into the UltraMicroPump III to achieve accurate injection in microliter range. Reference and vehicle were injected intraperitoneally at a dose volume of 2.5 ml/kg using a 30G-needle mounted on a 1 ml-syringe.
Light Exposure: The rats that had been dark-adapted overnight were exposed for 24 hours to a continuous white fluorescent light (7000 Ix) in clear plastic cages. Each cage contained one rat. After exposure, the rats returned to rearing cyclic light conditions.
ERG was recorded before induction and 7, 14 and 21 days after cessation of exposure (Days 9, 16 and 23) on right eyes of dark-adapted and anesthetized animals. The latency times (for a- and b-wave) and the a-wave and b-wave amplitudes were measured for each ERG; the latency times were expressed as millisecond and the a-wave and b-wave as a percentage of the baseline value obtained before light exposure. 15 min before measurement 10 μl Mydriaticum® (0.5% tropicamide) were instilled for pupillary dilatation.
ERG Parameters: • Color: white maximum. • Maximum intensity: 2.6 cd·s/m^2 (0 dB); Duration 0.24 ms; number of flash: 1. • Filter: 50 Hz. • Impedence Threshold: 90 kΩ.
Measurement of the ONL Thickness: After ERG testing, animal was euthanized by an overdose of pentobarbital and the right eyes were enucleated, fixed and embedded in paraffin. Sections (5 μm thick) were performed along the vertical meridian and stained with Trichrome-Masson. The vertical meridian included the optic nerve.
Group mean values and standard deviation were calculated. A statistical Mann and Whitney test was used to evaluate the differences between pair-wise groups. For comparison between time-point into each vehicle groups, a Friedman test was used. […]

[3] = Phase I pharmacokinetics after single iv infusion; details: human, in vivo
Method: The primary objective of the study was to assess the safety and tolerability of XG-102 following intravenous (iv) infusion of single escalating doses of XG-102 to healthy male volunteers. The secondary objective of the study was to assess the pharmacokinetics of XG-102 following iv infusion of single escalating doses of XG-102 to healthy male volunteers. Doses were administered as a 60 minute iv infusion. For control purposes, placebo iv infusion was administered to control subjects. This was a single-centre, randomized, double blind, placebo controlled, ascending single dose, sequential group study. […] Screening was performed in the 3-week period prior to dosing. Dosing occurred on Day 0 for each subject. […] Data for all subjects were included in the safety analyses; data for all subjects who received XG-102 were included in the pharmacokinetic analyses.

rabbits = assay: Ocular MTD studies, sub-conjunctival administration; type: in vivo, rabbit
From the text: Despite technical advances in ocular surgery, the physical trauma of this procedure continues to induce post-operative ocular inflammation warranting treatment. In ocular tissue, arachidonic acid is metabolized by cyclooxygenase (COX) to prostaglandins (PG) which are the most important lipid-derived mediators of inflammation. Surgical trauma causes a trigger of the arachidonic acid cascade which in turn generates PGs by activation of COX-1 and COX-2. Phospholipids in the cell membrane are the substrate for phospholipase A to generate arachidonic acid from which a family of chemically distinct PGs and leukotriens are produced. The ‘golden standard’ for the treatment of ocular inflammation are topical corticosteroids and/or Non-Steroidal Anti-inflammatory Drugs (NSAIDs). Side effects reported with (short-term) corticosteroid use include cataract formation, increased Intra Ocular Pressure (IOP), increased susceptibility to viral infections and retardation of the corneal epithelial and stromal wound healing. In addition, prolonged treatment with corticosteroids have been known to induce systemic side effects such as glucose impairment, hypertension, development of glaucoma, visual acuity defects, loss of visual field, and posterior subcapsular cataract formation. […]

[4] = human, in vivo, 1 h
Method: The quantification (plasma) of XG-102 in plasma was evaluated in a subset of 32 patients located in one site. A venous blood sample (2 ml) was obtained using a Li-Heparin tube 60 minutes after sub-conjunctival administration of study treatment. The exact time when the sample was performed was entered in the space provided on the e-CRF. The blood sample was centrifuged for 10 minutes at 2,500 RPM at room temperature. After centrifugation, using a pipette, the plasma was transferred to two 1.5 ml cryotubes. The cryotubes were then placed in a freezer at −80° C. and were then subsequently sent in dry ice with a temperature data logger to the central laboratory responsible for the analysis. Upon receipt at the central laboratory, the samples were stored at −80° C. until analyzed.

Compound: CC(C)C[C@@H](NC(=O)[C@@H](Cc1ccccc1)NC(=O)[C@H]1CCCN1C(=O)[C@@H](CCC(N)=O)NC(=O)[C@H](NC(=O)[C@H]1CCCN1C(=O)[C@@H](CCCNC(=N)N)NC(=O)[C@@H](CO)NC(=O)[C@@H](CCC(N)=O)NC(=O)[C@H](N)CC(=O)O)C(C)C)C(=O)N[C@H](CC(N)=O)C(=O)N[C@H](CC(C)C)C(=O)N[C@@H](C(=O)N[C@@H](C(=O)N1CCC[C@@H]1C(=O)N[C@H](CCCNC(=N)N)C(=O)N[C@H](CCCCN)C(=O)N1CCC[C@@H]1C(=O)N[C@H](CCCNC(=N)N)C(=O)N1CCC[C@@H]1C(=O)N1CCC[C@@H]1C(=O)N[C@H](CCCNC(=N)N)C(=O)N[C@H](CCCNC(=N)N)C(=O)N[C@H](CCCNC(=N)N)C(=O)N[C@H](CCC(N)=O)C(=O)N[C@H](CCCNC(=N)N)C(=O)N[C@H](CCCNC(=N)N)C(=O)N[C@H](CCCCN)C(=O)N[C@H](CCCCN)C(=O)N[C@H](CCCNC(=N)N)C(=O)NCC(=O)O)[C@H](C)O)[C@H](C)O [XG-102]
- incorporation into macrophages [1]: is strongly incorporated into primary macrophages
- protection of ONL thickness ([2]; high dose XG-102): No protection was observed with high dose XG-102
- recovery of the a-wave (% of baseline) ([2]; low dose 1.5 μg/eye): 48.3%
- loss of the mean ONL thickness ([2]; low dose XG-102): 40%
- loss of the mean ONL thickness ([2]; mid dose XG-102): 40%
- dose proportionality of AUC0-last [3]: increases in a more than linear proportion with dose in the tested dose range
- MRT ([3]; 80 ug/kg): 1.02 (14.7) h
- No Observed Adverse Effect Level (NOAEL) (rabbits): ~600 µg
- XG-102 concentration in plasma [4]: < 10 ng/mL
